From US9428492B2, “Secondary alcohol substituted triazoles as PDE10 inhibitors” (Merck Sharp & Dohme Corp., priority 2012, dated 2016)
Where two headings read alike, the source gives them in different places.

How the values were obtained:
human PDE10A2 = human PDE10A2 (Homo sapiens (Human), UniProt Q9Y233); experiment: PDE10 fluorescence polarization (IMAP FP) inhibition assay; assay type: biochemical
Method: The activity of the compounds in accordance with the present invention as PDE10 inhibitors may be readily determined without undue experimentation using a fluorescence polarization (FP) methodology that is well known in the art (Huang, W., et al., J. Biomol Screen, 2002, 7: 215).
In a typical experiment the PDE10 inhibitory activity of the compounds of the present invention was determined in accordance with the following experimental method. PDE10A2 was amplified from human fetal brain cDNA (Clontech, Mountain View, Calif.) using a forward primer corresponding to nucleotides 56-77 of human PDE10A2 (Accession No. AF127480, Genbank Identifier 4894716), containing a Kozak consensus sequence, and a reverse primer corresponding to nucleotides 2406-2413 of human PDE10A2 (Accession No. AF127480, Genbank Identifier 4894716). Amplification with Easy-A polymerase (Stratagene, La Jolla, Calif.) was 95° C. for 2 minutes followed by thirty three cycles of 95° C. for 40 seconds, 55° C. for 30 seconds, and 72° C. for 2 minutes 48 seconds. Final extension was 72° C. for 7 minutes. The PCR product was TA cloned into pcDNA3.2-TOPO (Invitrogen, Carlsbad, Calif.) according to standard protocol. AD293 cells with 70-80% confluency were transiently transfected with human PDE10A2/pcDNA3.2-TOPO using Lipofectamine 2000 according to manufacturer specifications (Invitrogen, Carlsbad, Calif.). Cells were harvested 48 hours post-transfection and lysed by sonication (setting 3, 10×5 sec pulses) in a buffer containing 20 mM HEPES, 1 mM EDTA and protease inhibitor cocktail (Roche). Lysate was collected by centrifugation at 75,000×g for 20 minutes. Supernatant containing the cytoplasmic fraction was used for evaluation of PDE10A2 activity. The fluorescence polarization assay for cyclic nucleotide phosphodiesterases was performed using an IMAP® FP kit supplied by Molecular Devices, Sunnyvale, Calif. (product # R8139). IMAP® technology has been applied previously to phosphodiesterase assays (Huang, W., et al., J. Biomol Screen, 2002, 7: 215). Assays were performed at room temperature in 384-well microtiter plates with an incubation volume of 20.2 μL. Solutions of test compounds were prepared in DMSO and serially diluted with DMSO to yield 8 μL of each of 10 solutions differing by 3-fold in concentration, at 32 serial dilutions per plate. […] 0% of inhibition is determined by using DMSO (1% final concentrations).
A Labcyte Echo 555 (Labcyte, Sunnyvale, Calif.) is used to dispense 200 nL from each well of the titration plate to the 384 well assay plate. A solution of enzyme (1/1600 dilution from aliquots; sufficient to produce 20% substrate conversion) and a separate solution of FAM-labeled cAMP PDE from Molecular Devices (product # R7506), at a final concentration of 50 nM are made in the assay buffer (10 mM Tris HCl, pH 7.2, 10 mM MgCl2, 0.05% NaN3 0.01% Tween-20, and 1 mM DTT). The enzyme and the substrate are then added to the assay plates in two consecutive additions of 10 μL, and then shaken to mix. The reaction is allowed to proceed at room temperature for 30 minutes. […] The enzymatic reaction is stopped by addition of 60 μL of the binding solution to each well of the assay plates and the plates are sealed and shaken for 10 seconds. The plate was incubated at room temperature for at least one hour prior to determining the fluorescence polarization (FP). The parallel and perpendicular fluorescence of each well of the plate was measured using a Perkin Elmer EnVision™ plate reader (Waltham, Mass.).
Fluorescence polarization (mP) was calculated from the parallel (S) and perpendicular (P) fluorescence of each sample well and the analogous values for the median control well, containing only substrate (So and Po), using the following equation: Polarization (mP)=1000*(S/So−P/Po)/(S/So+P/Po).
Dose-inhibition profiles for each compound were characterized by fitting the mP data to a four-parameter equation given below.

CYP3A4 = CYP3A4 (Homo sapiens (Human), UniProt P08684); experiment: time-dependent inhibition (TDI) of CYP3A4; assay type: in vitro ADME; settings: for time-dependent inhibition (TDI) of the CYP3A4 enzyme: result in words
Sequence of CYP3A4 (P08684 whole entry): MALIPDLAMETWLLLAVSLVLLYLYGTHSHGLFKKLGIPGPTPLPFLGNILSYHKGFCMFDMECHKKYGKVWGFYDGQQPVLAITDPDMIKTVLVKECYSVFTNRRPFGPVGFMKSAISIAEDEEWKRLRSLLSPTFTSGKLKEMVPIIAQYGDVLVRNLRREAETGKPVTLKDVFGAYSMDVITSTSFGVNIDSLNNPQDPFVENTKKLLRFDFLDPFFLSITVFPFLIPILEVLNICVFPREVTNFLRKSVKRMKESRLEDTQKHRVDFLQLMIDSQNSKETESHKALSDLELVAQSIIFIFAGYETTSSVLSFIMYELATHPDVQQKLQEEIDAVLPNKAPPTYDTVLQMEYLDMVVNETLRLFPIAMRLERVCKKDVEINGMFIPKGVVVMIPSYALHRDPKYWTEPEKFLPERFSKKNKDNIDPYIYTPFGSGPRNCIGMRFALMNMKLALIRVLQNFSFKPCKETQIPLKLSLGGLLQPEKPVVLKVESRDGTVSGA

CYP2C9 = CYP2C9 (Homo sapiens (Human), UniProt P11712); experiment: reversible inhibition of CYP2C9; assay type: in vitro ADME
Sequence of CYP2C9 (P11712 whole entry): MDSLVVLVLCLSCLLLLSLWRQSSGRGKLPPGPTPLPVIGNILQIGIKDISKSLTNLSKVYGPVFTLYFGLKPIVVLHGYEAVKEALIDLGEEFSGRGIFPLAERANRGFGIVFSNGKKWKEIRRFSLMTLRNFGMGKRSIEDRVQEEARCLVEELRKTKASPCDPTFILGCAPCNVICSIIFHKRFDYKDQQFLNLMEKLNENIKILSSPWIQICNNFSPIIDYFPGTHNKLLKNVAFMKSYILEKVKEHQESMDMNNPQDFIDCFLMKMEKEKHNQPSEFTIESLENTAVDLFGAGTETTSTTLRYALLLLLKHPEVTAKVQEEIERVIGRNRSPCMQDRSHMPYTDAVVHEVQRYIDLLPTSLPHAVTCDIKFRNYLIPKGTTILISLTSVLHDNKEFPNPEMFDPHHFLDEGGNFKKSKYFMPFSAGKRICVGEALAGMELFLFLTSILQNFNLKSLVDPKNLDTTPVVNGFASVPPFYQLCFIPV

[1] = comparison table with Compounds A, B, C, read-out: PDE10 Ki

Sequence of human PDE10A2 (Q9Y233 267-1055): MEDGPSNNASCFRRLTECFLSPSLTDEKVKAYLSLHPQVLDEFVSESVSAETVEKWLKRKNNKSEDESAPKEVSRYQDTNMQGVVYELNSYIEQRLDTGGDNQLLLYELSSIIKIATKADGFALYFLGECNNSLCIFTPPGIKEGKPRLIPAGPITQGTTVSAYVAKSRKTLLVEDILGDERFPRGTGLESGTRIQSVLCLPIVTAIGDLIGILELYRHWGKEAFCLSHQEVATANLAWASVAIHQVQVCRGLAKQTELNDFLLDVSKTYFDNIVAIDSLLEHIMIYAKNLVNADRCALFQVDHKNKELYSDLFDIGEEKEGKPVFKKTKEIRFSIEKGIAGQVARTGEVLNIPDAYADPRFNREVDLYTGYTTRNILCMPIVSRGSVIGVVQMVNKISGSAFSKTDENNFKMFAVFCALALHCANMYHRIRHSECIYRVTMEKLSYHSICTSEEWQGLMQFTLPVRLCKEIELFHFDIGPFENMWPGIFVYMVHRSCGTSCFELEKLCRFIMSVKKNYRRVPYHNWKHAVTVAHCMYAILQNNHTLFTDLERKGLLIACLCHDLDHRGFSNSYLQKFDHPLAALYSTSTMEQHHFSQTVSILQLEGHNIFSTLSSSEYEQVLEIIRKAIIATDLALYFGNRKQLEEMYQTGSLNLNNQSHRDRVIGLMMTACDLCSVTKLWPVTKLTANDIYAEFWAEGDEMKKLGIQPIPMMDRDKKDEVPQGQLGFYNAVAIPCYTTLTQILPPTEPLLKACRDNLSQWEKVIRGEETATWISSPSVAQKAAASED

Ki (human PDE10A2; [1]) | Ki (human PDE10A2; read-out: PDE10a Ki) | TDI CYP3A4 shift ratio (CYP3A4) | time-dependent inhibition (TDI) of the CYP3A4 enzyme (CYP3A4) | IC50 (CYP2C9) | Compound
0.06 nM | 0.06 nM | 1 | do not exhibit TDI of CYP3A4 | > 50000 nM | Cc1nc(N2CC(c3nc4ccccc4n3C)C2)cc(-n2nc(C)nc2C(O)C(F)(F)F)n1 (single isomer, unassigned) [Example 3b, 2,2,2-trifluoro-1-(3-methyl-1-(2-methyl-6-(3-(1-methyl-1H-benzo[d]imidazol-2-yl)azetidin-1-yl)pyrimidin-4-yl)-1H-1,2,4-triazol-5-yl)ethanol]
0.51 nM | 0.41 nM | 1 | do not exhibit TDI of CYP3A4 | > 50000 nM | CCC(O)c1nc(C)nn1-c1cc(N2CC(c3nc4ccccc4n3C)C2)nc(C)n1 (single isomer, unassigned) [Example 4b, 1-(3-methyl-1-(2-methyl-6-(3-(1-methyl-1H-benzo[d]imidazol-2-yl)azetidin-1-yl)pyrimidin-4-yl)-1H-1,2,4-triazol-5-yl)propan-1-ol]
0.17 nM | 0.17 nM | 1 | do not exhibit TDI of CYP3A4 | > 50000 nM | Cc1nc(N2CC(c3nc4ccccc4n3C)C2)cc(-n2nc(C)nc2C(O)C2CC2)n1 (single isomer, unassigned) [Example 6a, cyclopropyl(3-methyl-1-(2-methyl-6-(3-(1-methyl-1H-benzo[d]imidazol-2-yl)azetidin-1-yl)pyrimidin-4-yl)-1H-1,2,4-triazol-5-yl)methanol]
– | – | – | do not exhibit TDI of CYP3A4 | > 50000 nM | CCC(O)c1nc(C)nn1-c1cc([C@@H]2C[C@H]2c2nc3ccccc3n2C)nc(C)n1 (single isomer, unassigned) [Example 19a]
4.2 nM | – | 1 | – | > 50000 nM | Cc1nc([C@@H]2C[C@H]2c2nc3ccccc3n2C)cc(-n2nc(C)nc2C(C)(C)O)n1 [Compound A, 2-(3-methyl-1-(2-methyl-6-((1R,2R)-2-(1-methyl-1H-benzo[d]imidazol-2-yl)cyclopropyl)pyrimidin-4-yl)-1H-1,2,4-triazol-5-yl)propan-2-ol, reference compound]
2.1 nM | – | 1 | – | 10500 nM | CO[C@@H](C)c1nc(C)nn1-c1cc([C@@H]2C[C@H]2c2nc3ccccc3n2C)nc(C)n1 [Compound B, 2-((1R,2R)-2-(6-(5-((S)-1-methoxyethyl)-3-methyl-1H-1,2,4-triazol-1-yl)-2-methylpyrimidin-4-yl)cyclopropyl)-1-methyl-1H-benzo[d]imidazole, reference compound]
– | 0.23 nM | 1 | do not exhibit TDI of CYP3A4 | > 50000 nM | Cc1nc(N2CC(c3nc4ccccc4n3C)C2)cc(-n2nc(C)nc2[C@H](C)O)n1 [Example 1, (S)-1-(3-methyl-1-(2-methyl-6-(3-(1-methyl-1H-benzo[d]imidazol-2-yl)azetidin-1-yl)pyrimidin-4-yl)-1H-1,2,4-triazol-5-yl)ethanol]
1.2 nM | 1.2 nM | 1 | do not exhibit TDI of CYP3A4 | > 50000 nM | Cc1nc(N2CC(c3nc4ccccc4n3C)C2)cc(-n2nc(C)nc2[C@@H](C)O)n1 [Example 2, (R)-1-(3-methyl-1-(2-methyl-6-(3-(1-methyl-1H-benzo[d]imidazol-2-yl)azetidin-1-yl)pyrimidin-4-yl)-1H-1,2,4-triazol-5-yl)ethanol]
– | 1.2 nM | – | – | – | COc1nc(N2CC(c3nc4ccccc4n3C)C2)cc(-n2nc(C)nc2C(C)O)n1 (stereo not drawn) [Example 9, 1-(1-(2-methoxy-6-(3-(1-methyl-1H-benzo[d]imidazol-2-yl)azetidin-1-yl)pyrimidin-4-yl)-3-methyl-1H-1,2,4-triazol-5-yl)ethanol]
– | 0.21 nM | – | – | – | Cc1nc(C(C)O)n(-c2cc(N3CC(c4nc5ccccc5n4C)C3)nc(C3CC3)n2)n1 (stereo not drawn) [Example 10, 1-(1-(2-cyclopropyl-6-(3-(1-methyl-1H-benzo[d]imidazol-2-yl)azetidin-1-yl)pyrimidin-4-yl)-3-methyl-1H-1,2,4-triazol-5-yl)ethanol]
– | 0.34 nM | – | – | – | Cc1nc(N2CC(c3nc4ccccc4n3C)C2)cc(-n2nc(C)nc2C(O)CF)n1 (stereo not drawn) [Example 12, 2-fluoro-1-(3-methyl-1-(2-methyl-6-(3-(1-methyl-1H-benzo[d]imidazol-2-yl)azetidin-1-yl)pyrimidin-4-yl)-1H-1,2,4-triazol-5-yl)ethanol]
– | 0.09 nM | – | – | – | Cc1nc([C@@H]2C[C@H]2c2nc3ccccc3n2C)cc(-n2nc(C)nc2[C@H](O)c2ccccc2)n1 [Example 15, (R)-(3-methyl-1-(2-methyl-6-((1R,2R)-2-(1-methyl-1H-benzo[d]imidazol-2-yl)cyclopropyl)pyrimidin-4-yl)-1H-1,2,4-triazol-5-yl)(phenyl)methanol]
– | 0.62 nM | – | – | – | Cc1nc([C@@H]2C[C@H]2c2nc3ccccc3n2C)cc(-n2nc(C)nc2[C@@H](O)c2ccccc2)n1 [Example 16, (S)-(3-methyl-1-(2-methyl-6-((1R,2R)-2-(1-methyl-1H-benzo[d]imidazol-2-yl)cyclopropyl)pyrimidin-4-yl)-1H-1,2,4-triazol-5-yl)(phenyl)methanol]
– | 2.8 nM | – | – | – | Cc1nc([C@H](C)O)n(-c2cc([C@@H]3C[C@H]3c3nc4ccccc4n3C)nc(C(F)(F)F)n2)n1 [Example 17, (S)-1-(3-methyl-1-(6-((1R,2R)-2-(1-methyl-1H-benzo[d]imidazol-2-yl)cyclopropyl)-2-(trifluoromethyl)pyrimidin-4-yl)-1H-1,2,4-triazol-5-yl)ethanol]
– | 0.36 nM | – | – | – | Cc1nc([C@H](C)O)n(-c2cc([C@@H]3C[C@H]3c3nc4ccccc4n3C)nc(C3CC3)n2)n1 [Example 18, (S)-1-(1-(2-cyclopropyl-6-((1R,2R)-2-(1-methyl-1H-benzo[d]imidazol-2-yl)cyclopropyl)pyrimidin-4-yl)-3-methyl-1H-1,2,4-triazol-5-yl)ethanol]
– | 0.55 nM | – | – | – | Cc1nc(C2C[C@H]2c2nc3ccccc3n2C)cc(-n2nc(C)nc2C(O)C(F)(F)F)n1 (stereo partly drawn) [Example 20, 2,2,2-trifluoro-1-(3-methyl-1-(2-methyl-6-((1R,2R)-2-(1-methyl-1H-benzo[d]imidazol-2-yl)cyclopropyl)pyrimidin-4-yl)-1H-1,2,4-triazol-5-yl)ethanol]
– | 0.47 nM | – | – | – | Cc1nc([C@@H]2C[C@H]2c2nc3ccccc3n2C)cc(-n2nc(C)nc2C(O)C(C)C)n1 (stereo partly drawn) [Example 21, 2-methyl-1-(3-methyl-1-(2-methyl-6-((1R,2R)-2-(1-methyl-1H-benzo[d]imidazol-2-yl)cyclopropyl)pyrimidin-4-yl)-1H-1,2,4-triazol-5-yl)propan-1-ol]

Compound | Ki (human PDE10A2; [1]) | Ki (human PDE10A2; read-out: PDE10a Ki) | TDI CYP3A4 shift ratio (CYP3A4) | time-dependent inhibition (TDI) of the CYP3A4 enzyme (CYP3A4) | IC50 (CYP2C9)
COCc1nc(C)nn1-c1cc([C@@H]2C[C@H]2c2nc3ccccc3n2C)nc(C)n1 [Compound C, 2-((1R,2R)-2-(6-(5-(methoxymethyl)-3-methyl-1H-1,2,4-triazol-1-yl)-2-methylpyrimidin-4-yl)cyclopropyl)-1-methyl-1H-benzo[d]imidazole, reference compound] | 0.49 nM | – | >1.98 | exhibited time-dependent inhibition (TDI) of the CYP3A4 enzyme | 46000 nM
